Measured values taken from paper PMC12557437, “Research towards selective inhibition of the CLK3 kinase” (Beilstein Journal of Organic Chemistry, 2025).
Several values for one entry are separate records, joined by “and”; a condition that tells them apart may be missing. Identical values can stand only once. Entries after “also recorded” stand apart in the source; their conditions may differ.

Legend:
Format in all cases: biochemical
DYRK kinases = assay: radiometric kinase assay, summary for DYRK kinases; conditions: DYRK1A, DYRK1B, DYRK2; listed as VS-77
Excerpt: Finally, in order to complete our profiling of VS-77, we then measured its activity against the DYRK 1A, DYRK1B and DYRK2 kinases and the results are reported in Table 3.
This point will be discussed in the molecular modeling part below.

Mm_CLK2 = Mm_CLK2 (Mus musculus, UniProt O35491); assay: radiometric γ33P-ATP kinase assay (Eurofins)
Experimental: (§1) The results are reported in Table 2 and in Supporting Information File 1.
(§2) 2- Kinase inhibition studies
(§3) Kinase enzymatic activities were assayed using both luminescent ADP detection assay
(§4) (ADP-GloTM assay kit, Promega, Madison, WI) or radiometric kinase assay. These
(§5) assays were performed using the protocols described in our previous publication. […]
(§6) 1.Brahmaiah, D.; Kanaka Durga Bhavani, A.; Aparna, P.; Sampath Kumar, N.; Solhi,
(§7) H.; Le Guevel, R.; Baratte, B.; Ruchaud, S.; Bach, S.; Singh Jadav, S.; Raji Reddy, C.;
(§8) Roisnel, T.; Mosset, P.; Levoin, N.; Grée, R. Bioorg.
(§9) R.; Baratte, B.; Robert, T.; Ruchaud, S.; Bach, S.; Jadav, S. S.; Reddy, C. […]

Mm_CLK4 = Mm_CLK4 (Mus musculus, UniProt O35493); assay: radiometric γ33P-ATP kinase assay (Eurofins)
Experimental: as §1, §2, §3, §4, §5, §6, §7, §8, §9

Mm_CLK1 [1] = target: T1, Mm_CLK1 (Mus musculus, UniProt P22518); assay: radiometric γ33P-ATP kinase assay (Eurofins)
Experimental: as §1, §2, §3, §4, §5, §6, §7, §8, §9

Mm_CLK3 = Mm_CLK3 (Mus musculus, UniProt O35492); assay: radiometric γ33P-ATP kinase assay (Eurofins); conditions: 15 µM ATP; dose-response, points in duplicate
Experimental: as §1, §2, §3, §4, §5, §6, §7, §8
R.; Baratte, B.; Robert, T.; Ruchaud, S.; Bach, S.; Jadav, S. S.; Reddy, C. R.; Mosset,
P.; Gouault, N.; Levoin, N.; Grée, R. Molecules 2022, 27, 6149. […]

Hs_CK1ε = Hs_CK1ε (Homo sapiens, UniProt P49674); assay: primary screening, short panel of mammalian kinases; conditions: ATP 10 µM, means, n = 2, read-out: Residual kinase activity Hs_CK1ε
Excerpt: (§10) Our molecules have been submitted first to a primary screening against a panel of eight disease-related kinases: five members of the CMGC (for CDK, MAPK, GSK3, and CLK) group (CDK5/p25, CDK9/CyclinT, GSK3β, CLK1 and DYRK1A), one CAMK (calmodulin/calcium regulated kinase PIM1), one CK1 (the casein kinase CK1ε), and haspin as a […] kinase.
(§11) Figure 4 Primary evaluation of the inhibition of the new quinazolines against a short panel of mammalian kinases. Residual kinase activities are expressed in % of maximal activity, i.e., measured in the absence of inhibitor but with an equivalent dose of DMSO (solvent of the tested compounds). ATP concentration used in the kinase assays was 10 µM (values are means, n = 2). Kinases are from human origin (Homo sapiens) except CLK1 (from Mus musculus) and DYRK1A (from Rattus norvegicus). […]

Rn_DYRK1A = Rn_DYRK1A (Rattus norvegicus, UniProt Q63470); assay: as above; conditions: ATP 10 µM, means, n = 2, read-out: Residual kinase activity Rn_DYRK1A
Excerpt: as §10, §11

Hs_HASPIN = target: T2, Hs_HASPIN (Homo sapiens, UniProt Q8TF76); assay: as above; conditions: ATP 10 µM, means, n = 2, read-out: Residual kinase activity Hs_HASPIN
T2 sequence (Q8TF76 1-798): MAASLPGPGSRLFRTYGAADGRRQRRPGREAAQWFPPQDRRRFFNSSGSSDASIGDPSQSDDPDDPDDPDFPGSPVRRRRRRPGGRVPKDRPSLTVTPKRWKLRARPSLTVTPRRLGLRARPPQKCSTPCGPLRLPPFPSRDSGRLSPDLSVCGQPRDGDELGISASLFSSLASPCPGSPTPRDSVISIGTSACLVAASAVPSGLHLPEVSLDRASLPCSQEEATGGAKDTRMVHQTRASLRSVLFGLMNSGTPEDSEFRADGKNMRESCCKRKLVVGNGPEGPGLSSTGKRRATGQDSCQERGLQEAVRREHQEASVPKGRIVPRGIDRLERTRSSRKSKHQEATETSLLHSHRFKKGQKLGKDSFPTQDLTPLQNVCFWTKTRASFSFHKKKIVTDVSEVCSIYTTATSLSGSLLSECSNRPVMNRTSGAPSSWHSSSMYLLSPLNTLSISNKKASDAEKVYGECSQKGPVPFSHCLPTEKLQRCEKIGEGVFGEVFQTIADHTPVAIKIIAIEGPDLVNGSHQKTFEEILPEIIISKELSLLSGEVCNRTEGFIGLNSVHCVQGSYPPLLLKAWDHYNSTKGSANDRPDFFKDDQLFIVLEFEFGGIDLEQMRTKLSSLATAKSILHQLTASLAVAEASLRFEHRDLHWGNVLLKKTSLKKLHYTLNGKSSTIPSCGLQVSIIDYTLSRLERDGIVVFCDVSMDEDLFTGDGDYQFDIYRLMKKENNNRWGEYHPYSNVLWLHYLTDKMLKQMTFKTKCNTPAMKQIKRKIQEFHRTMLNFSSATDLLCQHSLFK
Excerpt: as §10, §11

Hs_CDK5/p25 = Hs_CDK5/p25 (Homo sapiens, UniProt Q00535); assay: as above; conditions: ATP 10 µM, means, n = 2, read-out: Residual kinase activity Hs_CDK5/p25
Excerpt: as §10, §11

Hs_PIM1 = Hs_PIM1 (Homo sapiens, UniProt P11309); assay: as above; conditions: ATP 10 µM, means, n = 2, read-out: Residual kinase activity Hs_PIM1
Excerpt: as §10, §11

Hs_GSK3β = Hs_GSK3β (Homo sapiens, UniProt P49841); assay: as above; conditions: ATP 10 µM, means, n = 2, read-out: Residual kinase activity Hs_GSK3β
Excerpt: as §10, §11

Hs_CDK9/CyclinT = Hs_CDK9/CyclinT (Homo sapiens, UniProt P50750); assay: as above; conditions: ATP 10 µM, means, n = 2, read-out: Residual kinase activity Hs_CDK9/CyclinT
Excerpt: as §10, §11

Mm_CLK1 [2] = target: T1, Mm_CLK1; assay: as above
Excerpt: as §10, §11

[3] = 15 µM ATP, dose-response, points in duplicate

T1 sequence (P22518 whole entry): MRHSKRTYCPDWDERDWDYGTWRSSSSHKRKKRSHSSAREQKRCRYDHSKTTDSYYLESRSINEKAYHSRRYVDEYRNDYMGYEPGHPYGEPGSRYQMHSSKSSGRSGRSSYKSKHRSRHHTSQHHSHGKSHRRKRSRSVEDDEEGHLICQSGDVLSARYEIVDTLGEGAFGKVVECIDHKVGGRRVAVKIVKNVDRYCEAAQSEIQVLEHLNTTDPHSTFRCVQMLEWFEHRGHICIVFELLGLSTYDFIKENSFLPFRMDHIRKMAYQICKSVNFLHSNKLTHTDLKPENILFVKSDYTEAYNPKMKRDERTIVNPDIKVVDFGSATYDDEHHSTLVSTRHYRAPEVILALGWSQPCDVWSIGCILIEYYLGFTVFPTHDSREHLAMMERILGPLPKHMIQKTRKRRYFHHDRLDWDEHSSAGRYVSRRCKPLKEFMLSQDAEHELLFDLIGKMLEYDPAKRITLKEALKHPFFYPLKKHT
Sequence of Mm_CLK3 (O35492 whole entry): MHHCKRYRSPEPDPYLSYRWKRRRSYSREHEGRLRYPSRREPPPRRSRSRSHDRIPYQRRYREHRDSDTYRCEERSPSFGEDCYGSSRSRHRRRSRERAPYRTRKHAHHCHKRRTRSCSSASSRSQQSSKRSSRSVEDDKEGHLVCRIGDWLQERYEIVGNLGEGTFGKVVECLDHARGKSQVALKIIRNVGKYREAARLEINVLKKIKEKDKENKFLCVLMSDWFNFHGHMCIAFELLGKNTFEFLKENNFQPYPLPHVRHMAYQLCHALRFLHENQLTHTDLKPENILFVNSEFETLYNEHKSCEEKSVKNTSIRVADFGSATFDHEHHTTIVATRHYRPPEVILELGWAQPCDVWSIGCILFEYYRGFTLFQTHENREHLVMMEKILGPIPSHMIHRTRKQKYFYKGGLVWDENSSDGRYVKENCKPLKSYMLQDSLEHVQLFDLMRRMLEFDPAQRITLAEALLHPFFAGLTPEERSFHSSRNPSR
Sequence of Hs_GSK3β (P49841 whole entry): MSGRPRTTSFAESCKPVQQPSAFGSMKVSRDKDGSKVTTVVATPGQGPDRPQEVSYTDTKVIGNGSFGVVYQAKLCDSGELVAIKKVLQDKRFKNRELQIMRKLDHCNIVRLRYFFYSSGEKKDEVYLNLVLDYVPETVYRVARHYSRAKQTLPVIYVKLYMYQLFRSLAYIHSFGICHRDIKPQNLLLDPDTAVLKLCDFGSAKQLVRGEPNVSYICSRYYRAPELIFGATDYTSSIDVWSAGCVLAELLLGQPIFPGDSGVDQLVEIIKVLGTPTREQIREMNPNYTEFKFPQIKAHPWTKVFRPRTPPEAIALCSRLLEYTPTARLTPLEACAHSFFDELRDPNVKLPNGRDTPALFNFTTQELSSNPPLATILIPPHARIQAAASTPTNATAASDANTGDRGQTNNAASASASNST
Sequence of Mm_CLK2 (O35491 whole entry): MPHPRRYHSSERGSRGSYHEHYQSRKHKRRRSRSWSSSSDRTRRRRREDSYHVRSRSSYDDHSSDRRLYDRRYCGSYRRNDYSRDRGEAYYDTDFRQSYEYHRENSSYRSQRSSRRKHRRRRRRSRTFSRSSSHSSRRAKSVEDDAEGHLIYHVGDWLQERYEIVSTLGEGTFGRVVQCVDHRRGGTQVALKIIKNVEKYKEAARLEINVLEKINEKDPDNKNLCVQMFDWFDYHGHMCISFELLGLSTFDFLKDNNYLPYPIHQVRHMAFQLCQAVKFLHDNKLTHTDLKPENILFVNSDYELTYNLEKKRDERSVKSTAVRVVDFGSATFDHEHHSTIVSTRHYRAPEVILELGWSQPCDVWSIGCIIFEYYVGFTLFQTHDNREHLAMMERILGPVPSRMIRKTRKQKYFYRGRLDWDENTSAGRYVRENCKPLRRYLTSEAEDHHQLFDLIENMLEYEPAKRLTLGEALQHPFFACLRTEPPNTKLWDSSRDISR
Sequence of Hs_PIM1 (P11309 whole entry): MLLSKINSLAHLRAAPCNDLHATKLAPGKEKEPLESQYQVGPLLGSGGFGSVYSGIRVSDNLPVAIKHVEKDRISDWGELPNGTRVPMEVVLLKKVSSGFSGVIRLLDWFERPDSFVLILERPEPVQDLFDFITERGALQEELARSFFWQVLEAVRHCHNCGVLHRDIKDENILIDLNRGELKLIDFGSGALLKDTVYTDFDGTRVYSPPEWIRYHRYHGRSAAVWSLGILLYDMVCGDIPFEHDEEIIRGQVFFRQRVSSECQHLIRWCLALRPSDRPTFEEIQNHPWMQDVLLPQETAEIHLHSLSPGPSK
Sequence of Hs_CDK5/p25 (Q00535 whole entry): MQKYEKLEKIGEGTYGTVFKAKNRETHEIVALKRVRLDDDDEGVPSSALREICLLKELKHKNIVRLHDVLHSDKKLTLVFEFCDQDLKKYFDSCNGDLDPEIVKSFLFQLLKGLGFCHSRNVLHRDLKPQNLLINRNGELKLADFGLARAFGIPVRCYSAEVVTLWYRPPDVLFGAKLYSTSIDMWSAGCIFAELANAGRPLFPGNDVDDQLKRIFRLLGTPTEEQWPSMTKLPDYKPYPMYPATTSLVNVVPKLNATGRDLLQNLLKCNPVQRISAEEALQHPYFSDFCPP
Sequence of Hs_CDK5/p25 (Q15078 99-307 partner limits assumed): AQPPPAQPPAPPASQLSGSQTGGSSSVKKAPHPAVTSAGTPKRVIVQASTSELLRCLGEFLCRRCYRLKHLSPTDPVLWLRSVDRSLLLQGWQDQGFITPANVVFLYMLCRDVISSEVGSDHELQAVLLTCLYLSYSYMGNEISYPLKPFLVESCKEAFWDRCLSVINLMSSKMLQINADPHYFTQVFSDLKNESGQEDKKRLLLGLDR
Sequence of Mm_CLK4 (O35493 whole entry): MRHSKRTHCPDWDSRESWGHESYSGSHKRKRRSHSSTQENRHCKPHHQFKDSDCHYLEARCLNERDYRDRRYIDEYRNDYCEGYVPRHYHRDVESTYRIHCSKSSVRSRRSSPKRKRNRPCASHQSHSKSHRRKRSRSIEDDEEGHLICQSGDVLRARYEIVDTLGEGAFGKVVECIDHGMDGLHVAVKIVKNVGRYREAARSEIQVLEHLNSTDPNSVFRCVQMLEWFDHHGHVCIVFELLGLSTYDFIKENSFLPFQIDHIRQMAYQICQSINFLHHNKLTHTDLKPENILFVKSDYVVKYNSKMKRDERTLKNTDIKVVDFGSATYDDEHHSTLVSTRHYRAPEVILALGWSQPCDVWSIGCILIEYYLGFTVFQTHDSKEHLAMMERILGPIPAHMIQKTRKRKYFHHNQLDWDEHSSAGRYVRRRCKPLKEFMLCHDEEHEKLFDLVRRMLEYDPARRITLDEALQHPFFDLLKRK
Sequence of Hs_CDK9/CyclinT (P50750 whole entry): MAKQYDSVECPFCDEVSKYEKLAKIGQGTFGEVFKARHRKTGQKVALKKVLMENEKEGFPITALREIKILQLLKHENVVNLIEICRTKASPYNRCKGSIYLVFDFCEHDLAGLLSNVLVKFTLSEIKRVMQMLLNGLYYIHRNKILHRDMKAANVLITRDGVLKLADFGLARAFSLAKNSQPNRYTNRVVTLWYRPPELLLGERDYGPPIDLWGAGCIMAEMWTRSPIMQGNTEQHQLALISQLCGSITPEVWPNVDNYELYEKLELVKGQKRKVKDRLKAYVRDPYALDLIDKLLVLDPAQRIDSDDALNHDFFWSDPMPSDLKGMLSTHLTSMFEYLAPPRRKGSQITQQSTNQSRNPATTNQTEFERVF
Sequence of Hs_CDK9/CyclinT (O60563 whole entry partner): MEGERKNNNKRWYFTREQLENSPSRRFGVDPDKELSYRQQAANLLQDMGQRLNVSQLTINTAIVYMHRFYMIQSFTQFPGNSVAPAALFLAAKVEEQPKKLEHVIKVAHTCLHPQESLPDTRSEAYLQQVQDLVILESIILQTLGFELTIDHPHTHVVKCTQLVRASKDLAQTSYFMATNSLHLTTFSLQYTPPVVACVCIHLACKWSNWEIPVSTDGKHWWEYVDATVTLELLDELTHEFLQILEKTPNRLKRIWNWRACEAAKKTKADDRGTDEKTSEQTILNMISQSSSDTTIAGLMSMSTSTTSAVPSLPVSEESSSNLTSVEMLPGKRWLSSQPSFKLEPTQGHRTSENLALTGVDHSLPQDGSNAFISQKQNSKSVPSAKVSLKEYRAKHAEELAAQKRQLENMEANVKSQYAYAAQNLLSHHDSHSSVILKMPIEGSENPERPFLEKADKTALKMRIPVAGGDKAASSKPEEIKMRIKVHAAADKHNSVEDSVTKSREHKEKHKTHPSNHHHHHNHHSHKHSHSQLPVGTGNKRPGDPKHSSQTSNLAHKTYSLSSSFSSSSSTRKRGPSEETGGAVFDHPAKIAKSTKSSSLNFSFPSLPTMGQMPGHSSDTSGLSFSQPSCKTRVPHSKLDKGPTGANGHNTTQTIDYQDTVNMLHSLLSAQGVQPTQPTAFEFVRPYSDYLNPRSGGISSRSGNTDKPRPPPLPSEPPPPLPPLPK
Sequence of Hs_CK1ε (P49674 whole entry): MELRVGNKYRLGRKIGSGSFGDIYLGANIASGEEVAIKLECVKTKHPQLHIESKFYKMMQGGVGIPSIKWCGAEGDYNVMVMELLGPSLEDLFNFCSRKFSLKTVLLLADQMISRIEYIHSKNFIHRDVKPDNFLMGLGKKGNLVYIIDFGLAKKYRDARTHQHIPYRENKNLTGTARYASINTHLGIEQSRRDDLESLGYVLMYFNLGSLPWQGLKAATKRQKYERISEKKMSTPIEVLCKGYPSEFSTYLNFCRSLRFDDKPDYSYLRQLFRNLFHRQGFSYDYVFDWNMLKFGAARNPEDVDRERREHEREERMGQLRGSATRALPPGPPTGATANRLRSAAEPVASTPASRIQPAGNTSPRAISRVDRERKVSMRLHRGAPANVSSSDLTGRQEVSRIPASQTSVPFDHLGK

IC50 (Mm_CLK2; [3]): 61 nM
Mm_CLK3/Mm_CLK2 (Mm_CLK2; ratio of IC50 values): 4.97
IC50 (Mm_CLK4; [3]): 62 nM
Mm_CLK3/Mm_CLK4 (Mm_CLK4; ratio of IC50 values): 4.89
IC50 (Mm_CLK1 [1]; [3]): 127 nM
Mm_CLK3/Mm_CLK1 (Mm_CLK1 [1]; ratio of IC50 values): 2.38
IC50 (Mm_CLK3): 300 nM and 303 nM
remaining activity at 1 µM (Hs_CK1ε; compound 1 μM): ≥ 100%
remaining activity at 10 µM (Hs_CK1ε; compound 10 μM): ≥ 100%
remaining activity at 1 µM (Rn_DYRK1A; compound 1 μM): 92%
remaining activity at 10 µM (Rn_DYRK1A; compound 10 μM): 62%
remaining activity at 1 µM (Hs_HASPIN; compound 1 μM): 74%
remaining activity at 10 µM (Hs_HASPIN; compound 10 μM): 74%
remaining activity at 1 µM (Hs_CDK5/p25; compound 1 μM): 92%
remaining activity at 10 µM (Hs_CDK5/p25; compound 10 μM): 37%
remaining activity at 1 µM (Hs_PIM1; compound 1 μM): 88%
remaining activity at 10 µM (Hs_PIM1; compound 10 μM): ≥ 100%
remaining activity at 1 µM (Hs_GSK3β; compound 1 μM): ≥ 100%
remaining activity at 10 µM (Hs_GSK3β; compound 10 μM): 43%
remaining activity at 1 µM (Hs_CDK9/CyclinT; compound 1 μM): 83%
remaining activity at 10 µM (Hs_CDK9/CyclinT; compound 10 μM): 47%
activity against CLK1 in primary screening (Mm_CLK1 [2]; 1 and 10 µM): significant activity against CLK1
remaining activity at 1 µM (Mm_CLK1 [2]; compound 1 μM, ATP 10 µM, means, n = 2, read-out: Residual kinase activity Mm_CLK1): 20%
remaining activity at 10 µM (Mm_CLK1 [2]; compound 10 μM, ATP 10 µM, means, n = 2, read-out: Residual kinase activity Mm_CLK1): 11%
SMILES: Cc1ccc(-n2cc(COc3cccc4cnc(Nc5cc(Cl)cc(-c6cccc(C(=O)O)c6)c5)nc34)nn2)c([N+](=O)[O-])c1 [Compound 13b]
inhibition of DYRK kinases (DYRK kinases): low, but significant inhibition; also recorded: weak inhibitor
